Series [1] relates to clinical S. aureus strains. Put plainly: MIC, microdilution, 12 clinical S. aureus strains. The class given is cell-based, Staphylococcus aureus. Conditions: panel of 12 clinical isolates (naso-pharynx, ulcers/furuncles, bones), highest tested concentration 100 µM. An excerpt: A panel of reference bacteria, including Escherichia coli NCTC 8196, Staphylococcus aureus ATCC 6538, Klebsiella pneumoniae ATCC 13883, and Pseudomonas aeruginosa NCTC 6749, was used to assess the antibacterial activity of the nine tested aziridine phosphines (1–4) and aziridine phosphine oxides (5–9). The two-fold microdilution method, following EUCAST guidelines, was used to determine a minimal inhibitory concentration (MIC) of each compound, as presented in Table S1.
Antibacterial activity: The in vitro antibacterial activity of nine tested aziridine phosphines (1–4) and aziridine phosphine oxides (5–9) was evaluated against reference bacterial strains (E. coli NCTC 8196, S. aureus ATCC 6538, K. pneumoniae ATCC 13883, P. aeruginosa NCTC 6749) and 12 S. aureus clinical isolates, including two methicillin-resistant isolates (MRSA, D15 and D17) obtained from infected patients hospitalized at the Oncological Hospital in Lodz (Poland). All strains were kept frozen at −80 °C in Tryptic Soy Broth with 15% glycerol. The minimal inhibitory concentration (MIC) is defined as the lowest concentration of the compound that prevents visible growth of bacteria using the microdilution method followed the EUCAST guidelines. Each compound was added to 96-well microplates in two-fold dilutions at concentrations from 3.125 to 100 μM in Mueller–Hinton broth. […] Bacterial culture was added into wells at a density of 5 × 10^5 CFU mL^−1, and plates were incubated at 37 °C for 18 h. As a positive control, an untreated bacterial culture was used, and a clear culture medium served as a negative control. The optical density at OD600 was measured using the SpectraMax i3 Multi-Mode Platform (Molecular Devices, San Jose, CA, USA). Ciprofloxacin hydrochloride (CIP, Sigma-Aldrich, Darmstadt, Germany) was used as a reference antimicrobial drug.
In general terms: In broth dilution the organism is exposed to a series of concentrations in liquid medium.

In a further series the test system is L929 cells. The series can be described thus: cells. The class given is cell-based, murine. The note with it: Mus musculus, L929, 24 h, read-out: IC50 (µM) L929. The procedure: (§1) Considering our previous research and the literature reports on the antitumor activity of aziridine derivatives, aziridine phosphines (1–4) and aziridine phosphine oxides (5–9) were tested to investigate their potential anticancer activity. The in vitro effects on cell viability were assessed using the 3-(4,5-dimethylthiazol-2-yl)-2,5-diphenyltetrazolium bromide (MTT) assay on non-tumorigenic murine fibroblasts (L929) as well as two cancer cell lines: human cervical epithelioid carcinoma (HeLa) cells and endometrial adenocarcinoma (Ishikawa) cells.
(§2) Cell viability inhibition: The in vitro effects on cell viability were determined using the 3-(4,5-dimethylthiazol-2-yl)-2,5-diphenyltetrazolium bromide (MTT) assay on non-tumorigenic murine fibroblasts L929 (ATTC®—CCL-1) as well as two cancer cell lines: human cervical epithelioid carcinoma HeLa cells (ATTC®—CCL-2™) and endometrial adenocarcinoma Ishikawa cells (ECACC 99040201). Cells were cultured on 96-well microplates at a density of 1 × 10^4 cells/well following the international in Dulbecco’s Modified Eagle’s Medium (DMEM, Biowest) supplemented with 10% fetal bovine serum (FBS, Biowest, Nuaillé, France), 100 U/mL of penicillin, and 100 μg/mL of streptomycin (Biowest, Nuaillé, France). After overnight incubation at 37 °C and 5% CO2, the growth medium was removed and 100 μL of fresh media with two-fold dilutions of the tested compounds at concentrations of 3.125–100 μM were added. […] Untreated cells in medium were used as a positive control, while a clear culture medium served as a negative control.

The subject of a further series is HeLa cells. Put plainly: LDH release assay. The class given is cell-based, human. Conditions: 24 h, highest concentration of 50 µM. The procedure: In order to distinguish whether the cell viability inhibition was attributed to growth inhibition or cytotoxicity manifested by cell membrane disruption, the lactate dehydrogenase (LDH) release assay was conducted. LDH is a cytoplasmic enzyme rapidly released from cells upon membrane damage, a key feature of apoptosis, necrosis, and other forms of cell death. The released enzyme can be detected due to its ability to convert lactate into pyruvate and NADH, which is then specifically determined by a colorimetric assay.
Figure 3 The effects of 5 (blue) and 7 (green) on LDH release from HeLa cells. The cells were treated with compounds at a concentration range of 3.125–50 μM for 24 h at 37 °C and 5% CO2. Data are presented as the mean LDH release (%) ± SD of two experiments compared to untreated control (red). Statistical significance measured by two-way analysis of variance (ANOVA) is indicated by asterisks: (*) p < 0.05.
LDH release assay: The activity of 5 and 7 on cell membrane destabilization was determined with the CytoTox 96®Non-Radioactive Cytotoxicity Assay (Promega, Madison, WI, USA). […] After incubation, Stop Solution (50 μL) was added to each well, and the absorbance was measured at 490 nm using the SpectraMax i3 Multi-Mode Platform (Molecular Devices, San Jose, CA, USA). […]
A general note: Release of lactate dehydrogenase indicates damage to the cell membrane.

The next series has as its system Ishikawa cells. Put plainly: cells. Conditions: for IC50: Homo sapiens, Ishikawa, 24 h, read-out: IC50 (µM) Ishikawa; for selectivity index (SI) Ishikawa: efficacy against Ishikawa versus normal fibroblasts L929, SI > 1.0 = greater efficacy against cancer cells. The class given is cell-based, human. The procedure: as §1, §2

Values after ≈ are worked out from the molar mass of the structure shown.

Broadly, the MIC is the lowest concentration found to suppress growth. Read a high MIC as a less susceptible organism. A word on the IC50: it is the midpoint of a concentration-inhibition curve. As for `CC(C)C[C@H]1CN1c1ccccc1P(=O)(c1ccccc1)c1ccccc1` [Compound 7], the MIC in series [1] (Staphylococcus aureus) and in series [1] was 100 µM (≈ 37.5 µg/mL) each time. The IC50 in the series with L929 cells is 17.5 ± 2.1 µM; with Ishikawa cells, 10.5 ± 3.1 µM. Moreover, in the series on HeLa cells, the “LDH release compared to untreated control” value is on record as “significant LDH release”. In addition, in the series with Ishikawa cells, the “selectivity index (SI) Ishikawa” value is on record as 1.7.
In the case of `CC(C)[C@@H]1CN1c1ccccc1P(=O)(c1ccccc1)c1ccccc1` [Compound 5], the MIC in series [1] (Staphylococcus aureus) and in series [1] was 100 µM (≈ 36.1 µg/mL) in each case. In addition, the IC50 in the series with L929 cells came out at 10.6 ± 3.2 µM; in the series with Ishikawa cells it was 4.6 ± 2.3 µM. Also, the “LDH release compared to untreated control” value in the series on HeLa cells is “significant LDH release”. Besides, the “selectivity index (SI) Ishikawa” value in the series on Ishikawa cells was determined as 2.3.
